Test results published in patent US9199946B2, “Pyrimidinone carboxamide inhibitors of endothelial lipase” (BRISTOL-MYERS SQUIBB COMPANY, priority 2012, dated 2015).

These compounds were tested against T1, Endothelial lipase (EL) (Homo sapiens, UniProt Q9Y5X9) (assay: Endothelial lipase (EL) enzymatic assay with fluorescent substrate A10070 in DMPG vesicles). Conditions: conditioned media from HT-1080 cells overexpressing endogenous EL; 20 min preincubation at 37° C.; read-out: EL IC50.
T1 construct: HT-1080 cells, which were transformed by RAGE technology (Athersys) to overexpress endogenous EL; endogenous in cells; conditioned medium used as the enzyme source
T1 sequence (Q9Y5X9 21-500): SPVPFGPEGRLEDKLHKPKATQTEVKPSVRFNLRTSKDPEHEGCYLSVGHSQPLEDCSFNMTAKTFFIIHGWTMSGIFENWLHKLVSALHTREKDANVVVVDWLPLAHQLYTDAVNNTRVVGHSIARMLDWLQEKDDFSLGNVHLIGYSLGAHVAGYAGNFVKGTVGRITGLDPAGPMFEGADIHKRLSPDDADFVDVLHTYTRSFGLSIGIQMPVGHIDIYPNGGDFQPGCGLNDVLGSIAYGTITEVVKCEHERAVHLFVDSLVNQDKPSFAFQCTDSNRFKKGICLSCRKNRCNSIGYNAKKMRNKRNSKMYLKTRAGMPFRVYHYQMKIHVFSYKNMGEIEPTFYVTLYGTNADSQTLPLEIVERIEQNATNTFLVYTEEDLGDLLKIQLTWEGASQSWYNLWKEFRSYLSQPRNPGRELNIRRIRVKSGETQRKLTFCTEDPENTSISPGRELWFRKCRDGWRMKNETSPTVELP
Assay type: biochemical
Method: Endothelial lipase activity was measured using a fluorescent substrate, A10070, (Invitrogen, CA) doped into an artificial vesicle containing DMPG (Avanti Polar Lipids) as the excipient. Vesicles were prepared by combining 285 μL of 1 mM DMPG in a 1:1 mixture of MeOH and CHCl3 with 15 μL of 1 mM A10070 in a 1:1 mixture of MeOH and CHCl3. The mixture was dried under nitrogen and resuspended in 150 μL of 50 mM HEPES pH 8.0 buffer containing 100 mM NaCl and 0.2 mM EDTA. The sample was allowed to sit at rt for 15 min and then was sonicated 3×4 mins on ice with a Branson Sonicator using duty cycle 1. This preparation provides vesicles with a mole fraction of 0.05 for the FRET substrate.
The enzymatic assay was measured using white, opaque 96-well half area plates. Each well contained 60 μL of assay buffer (50 mM HEPES pH 8.0, 50 mM NaCl and 1 mM CaCl2) and 2 ul of a DMSO solution containing compound of interest. Conditioned media obtained from HT-1080 cells, which were transformed by RAGE technology (Athersys) to overexpress endogenous EL, was added and the reaction was allowed to incubate for 20 min at 37° C. with gentle agitation. The reaction was started by the addition of 20 μL of a 1:4 dilution of vesicles. The final total reaction volume was 100 μL. The reaction rates were measured on a Gemini plate reader with an excitation wavelength of 488 nm and an emission of 530 nm. Readings were taken every 20 seconds for 10 min with agitation between each reading. The slope of the linear portion of the readout was used to calculate the rate of the reaction.

Row | IC50 [µM] | SMILES
1 | 0.039 | CC(C)Oc1ccc(C2CCC(NC(=O)c3[nH]c(=O)[nH]c(=O)c3N)C2)cc1 (centres unmarked) [Example 142, 5-amino-N-(3-(4-isopropoxyphenyl)cyclopentyl)-2,6-dioxo-1,2,3,6-tetrahydropyrimidine-4 carboxamide]
2 | 0.439 | CC(C)(O)CNc1c(C(=O)N[C@H]2CC[C@@H](c3ccccc3)CC2)[nH]c(=O)[nH]c1=O [Example 234, 5-(2-hydroxy-2-methylpropylamino)-2,6-dioxo-N-(cis-4-phenylcyclohexyl)-1,2,3,6-tetrahydropyrimidine-4-carboxamide]

Same assay, conditions: range observed in the EL assay; read-out: EL IC50 values

Row | IC50 [µM] | SMILES
3 | ≤ 10 | COC(=O)[C@@H]1C[C@H](NC(=O)c2[nH]c(=O)[nH]c(=O)c2N)c2ccccc21 [Example 12, (1R,3S)-methyl 3-(5-amino-2,6-dioxo-1,2,3,6-tetrahydropyrimidine-4-carboxamido)-2,3-dihydro-1H-indene-1-carboxylate]
4 | ≤ 10 | Nc1c(C(=O)NC2CCCC(c3ccccc3)C2)[nH]c(=O)[nH]c1=O (centres unmarked) [Example 101, 5-amino-2,6-dioxo-N-(3-phenylcyclohexyl)-1,2,3,6-tetrahydropyrimidine-4-carboxamide]
5 | ≤ 10 | Nc1c(C(=O)N[C@H]2CCCc3cc(OCC(F)(F)F)ccc32)[nH]c(=O)[nH]c1=O [Example 34, (S)-5-amino-2,6-dioxo-N-(6-(2,2,2-trifluoroethoxy)-1,2,3,4-tetrahydronaphthalen-1-yl)-1,2,3,6-tetrahydropyrimidine-4-carboxamide]
6 | ≤ 10 | Nc1c(C(=O)N[C@@H]2CC[C@H](c3ccccc3)C2)[nH]c(=O)[nH]c1=O [Example 75, 5-amino-2,6-dioxo-N-((1R,3S)-3-phenylcyclopentyl)-1,2,3,6-tetrahydropyrimidine-4-carboxamide]
7 | ≤ 10 | CC(C)Oc1ccc(C2CCC(NC(=O)c3[nH]c(=O)[nH]c(=O)c3N)C2)cc1 (centres unmarked) [Example 142, 5-amino-N-(3-(4-isopropoxyphenyl)cyclopentyl)-2,6-dioxo-1,2,3,6-tetrahydropyrimidine-4 carboxamide]
8 | ≤ 10 | Nc1c(C(=O)N[C@H]2CCCc3ccccc32)[nH]c(=O)[nH]c1=O [Example 10, (S)-5-amino-2,6-dioxo-N-(1,2,3,4-tetrahydronaphthalen-1-yl)-1,2,3,6-tetrahydropyrimidine-4-carboxamide]
9 | ≤ 10 | Nc1c(C(=O)N[C@H]2CC[C@H](c3ccccc3)c3ccccc32)[nH]c(=O)[nH]c1=O [Example 71, 5-amino-2,6-dioxo-N-((1S,4R)-4-phenyl-1,2,3,4-tetrahydronaphthalen-1-yl)-1,2,3,6-tetrahydropyrimidine-4-carboxamide]
10 | ≤ 10 | O=C(N[C@H]1CC[C@@H](c2ccccc2)CC1)c1[nH]c(=O)n(CCO)c(=O)c1O [Example 269, 5-Hydroxy-1-(2-hydroxyethyl)-2,6-dioxo-N-(cis-4-phenylcyclohexyl)-1,2,3,6-tetrahydropyrimidine-4-carboxamide]
11 | ≤ 10 | Nc1c(C(=O)N[C@@H]2CCCc3cc(OCc4ccccc4)ccc32)[nH]c(=O)[nH]c1=O [Example 83, (R)-5-amino-N-(6-(benzyloxy)-1,2,3,4-tetrahydronaphthalen-1-yl)-2,6-dioxo-1,2,3,6-tetrahydropyrimidine-4-carboxamide]
12 | ≤ 10 | COc1cccc(N2CC(NC(=O)c3[nH]c(=O)[nH]c(=O)c3N)CC2=O)c1 (centres unmarked) [Example 81, 5-amino-N-(1-(3-methoxyphenyl)-5-oxopyrrolidin-3-yl)-2,6-dioxo-1,2,3,6-tetrahydropyrimidine-4-carboxamide]
13 | ≤ 10 | Nc1c(C(=O)N[C@H]2CC[C@@H](c3ccc(-c4cccc(CO)c4)cc3)C2)[nH]c(=O)[nH]c1=O [Example 178, 5-amino-N-((1S,3R)-3-(3′-(hydroxymethyl)biphenyl-4-yl)cyclopentyl)-2,6-dioxo-1,2,3,6-tetrahydropyrimidine-4-carboxamide]
14 | ≤ 10 | O=C(N[C@@H]1CCCc2c1cccc2C(F)(F)F)c1[nH]c(=O)[nH]c(=O)c1O [Example 254, (R)-5-hydroxy-2,6-dioxo-N-(5-(trifluoromethyl)-1,2,3,4-tetrahydronaphthalen-1-yl)-1,2,3,6-tetrahydropyrimidine-4-carboxamide]
15 | ≤ 10 | CCn1c(=O)[nH]c(C(=O)N[C@H]2CC[C@@H](c3ccccc3)CC2)c(O)c1=O [Example 239, 1-Ethyl-5-hydroxy-2,6-dioxo-N-(cis-4-phenylcyclohexyl)-1,2,3,6-tetrahydropyrimidine-4-carboxamide]
16 | ≤ 10 | Nc1c(C(=O)N[C@@H]2CCCc3c(OCC(F)(F)F)cccc32)[nH]c(=O)[nH]c1=O [Example 36, (R)-5-amino-2,6-dioxo-N-(5-(2,2,2-trifluoroethoxy)-1,2,3,4-tetrahydronaphthalen-1-yl)-1,2,3,6-tetrahydropyrimidine-4-carboxamide]
17 | ≤ 10 | Nc1c(C(=O)N[C@@H]2CCc3c(Oc4ccccc4)cccc32)[nH]c(=O)[nH]c1=O [Example 88, (R)-5-amino-2,6-dioxo-N-(4-phenoxy-2,3-dihydro-1H-inden-1-yl)-1,2,3,6-tetrahydropyrimidine-4-carboxamide]
18 | ≤ 10 | CC(C)(O)CNc1c(C(=O)N[C@H]2CC[C@@H](c3ccccc3)CC2)[nH]c(=O)[nH]c1=O [Example 234, 5-(2-hydroxy-2-methylpropylamino)-2,6-dioxo-N-(cis-4-phenylcyclohexyl)-1,2,3,6-tetrahydropyrimidine-4-carboxamide]
19 | ≤ 10 | O=C(N[C@H]1CC[C@@H](c2ccccc2)CC1)c1[nH]c(=O)[nH]c(=O)c1NC1CCCc2ccccc21 (stereo partly drawn) [Example 224, 2,6-dioxo-N-(cis-4-phenylcyclohexyl)-5-(1,2,3,4-tetrahydronaphthalen-1-ylamino)-1,2,3,6-tetrahydropyrimidine-4-carboxamide]
20 | ≤ 10 | COc1cccc2c1C[C@H](NC(=O)c1[nH]c(=O)[nH]c(=O)c1N)CC2 [Example 110, (R)-5-amino-N-(8-methoxy-1,2,3,4-tetrahydronaphthalen-2-yl)-2,6-dioxo-1,2,3,6-tetrahydropyrimidine-4-carboxamide]
21 | ≤ 10 | Nc1c(C(=O)N[C@@H]2CCCc3c(CCc4ccccc4)cccc32)[nH]c(=O)[nH]c1=O [Example 111, (R)-5-amino-2,6-dioxo-N-(5-phenethyl-1,2,3,4-tetrahydronaphthalen-1-yl)-1,2,3,6-tetrahydropyrimidine-4-carboxamide]
22 | ≤ 10 | Nc1c(C(=O)N[C@@H]2CC[C@@H](c3ccc(Cl)c(Cl)c3)C2)[nH]c(=O)[nH]c1=O [Example 68, 5-amino-N-((1R,3R)-3-(3,4-dichlorophenyl)cyclopentyl)-2,6-dioxo-1,2,3,6-tetrahydropyrimidine-4-carboxamide]
23 | ≤ 10 | CC(C)CCNc1c(C(=O)N[C@H]2CC[C@@H](c3ccccc3)CC2)[nH]c(=O)[nH]c1=O [Example 210, 5-(isopentylamino)-2,6-dioxo-N-(cis-4-phenylcyclohexyl)-1,2,3,6-tetrahydropyrimidine-4-carboxamide]
24 | ≤ 10 | Nc1c(C(=O)N[C@@H]2CC[C@@H](C(=O)Nc3cnn(Cc4ccccc4)c3)C2)[nH]c(=O)[nH]c1=O [Example 149, 5-amino-N-((1R,3R)-3-(1-benzyl-1H-pyrazol-4-ylcarbamoyl)cyclopentyl)-2,6-dioxo-1,2,3,6-tetrahydropyrimidine-4-carboxamide]
25 | ≤ 10 | O=C(N[C@H]1CC[C@@H](c2ccccc2)CC1)c1[nH]c(=O)[nH]c(=O)c1NCc1ccc(F)cc1 [Example 205, 5-(4-Fluorobenzylamino)-2,6-dioxo-N-(cis-4-phenylcyclohexyl)-1,2,3,6-tetrahydropyrimidine-4-carboxamide]
26 | ≤ 10 | O=C(N[C@H]1CC[C@@H](NC(=O)c2[nH]c(=O)[nH]c(=O)c2O)CC1)c1ccccc1 [Example 260, N-((1s,4s)-4-benzamidocyclohexyl)-5-hydroxy-2,6-dioxo-1,2,3,6-tetrahydropyrimidine-4-carboxamide]
27 | ≤ 10 | COc1cccc2c1C(NC(=O)c1[nH]c(=O)[nH]c(=O)c1N)CCC2 (single isomer, unassigned; enantiomer a) [Example 201, 5-amino-N-(8-methoxy-1,2,3,4-tetrahydronaphthalen-1-yl)-2,6-dioxo 1,2,3,6-tetrahydropyrimidine-4-carboxamide (Enantiomer A)]
28 | ≤ 10 | Nc1c(C(=O)N[C@H]2CC[C@H](c3ccc(Cl)c(Cl)c3)C2)[nH]c(=O)[nH]c1=O [Example 69, 5-amino-N-((1S,3S)-3-(3,4-dichlorophenyl)cyclopentyl)-2,6-dioxo-1,2,3,6-tetrahydropyrimidine-4-carboxamide]

Row | SMILES | IC50 [µM]
29 | CC(C)COc1ccc(C2CCC(NC(=O)c3[nH]c(=O)[nH]c(=O)c3N)C2)cc1 (centres unmarked) [Example 145, 5-amino-N-(3-(4-isobutoxyphenyl)cyclopentyl)-2,6-dioxo-1,2,3,6-tetrahydropyrimidine-4-carboxamide] | ≤ 10
